This is an account of results in US20110044991A1, “METHODS AND COMPOSITIONS FOR TREATING LYMPHOMA AND MYELOMA” (IRM LLC, priority 2006, published 2011).

Test [1] relates to lymphoma cells (mixed, B-cell lymphoma, plasmacytoma, plasmoblastoma). Description: Cytokine stimulation of lymphoma cells off stroma, Alamar Blue assay. Type of test: cell-based, mouse. The note with it: 2 days after stroma removal; cytokines 0-50 ng/ml; IL-6: plasmacytomas and mixed, IL-7: B-cell and mixed lymphomas, not plasmoblastomas. As to the method:
Luminescence was measured after 0 h, 24 h and 48 h after seeding of 2×10E4 luciferased lymphoma cells on the stroma cells; and F: RT-PCR analysis of transcripts from Hh pathway members and targets in spleen lymphocytes and different lymphoma cell lines.
Cell culture experiments: Lymphoma cells were infected with a retrovirus containing a pMSCV IRES puro-luc sequence and selected for 7 days with puromycin on puromycin-resistant Cdkn2a−/− stroma. […] Both were dissolved as x 1,000 stocks in DMSO. SCF was obtained from RDI, and all other cytokines were obtained from R&D systems. 5E1 anti-ShhN monoclonal antibody was obtained from the developmental hybridoma bank and was used at a concentration of 10 μg/ml. For cytokine stimulation and Shh inhibition in supernatant lymphoma cells were seeded into 96-well plates at a density of 20,000 cells per well and mitochondrial activity of viable cells was measured with an Alamar Blue Assay as described.

A further test deals with Eμ-Myc lymphoma cells. Description: Luciferase assay and light microscopy of luciferased lymphoma cells on stromal layer. In kind it is cell-based, mouse. The method, then: For Shh pathway inhibition on stroma, 6200 stroma cells were seeded per 96-well. After 24 hours 20,000 luciferased lymphoma cells were seeded on the stroma cells and 2 hours later compound or DMSO was added. Luciferase assay was performed with Bright-glow reagent as described. To generate cells overexpressing Hh pathway members, lymphoma cells were infected with Smo, Smo 535, Smo 562, Gli1 and Fused-pMSCV IRES GFP constructs and then sorted for GFP positive cells.
In order to investigate whether the Hh signalling pathway does indeed contribute to the survival and proliferation of lymphoma cells growing on an intact stromal layer, lymphoma cells were luciferased using a retrovirus expressing a puromycin/Luc fusion cassette. 2×10E4 lymphoma cells constitutively expressing luciferase were added to each 96-well containing a stromal layer (not expressing luciferase) isolated from Cdkn2a^−/− mice. A total of 34 individual Eμ-Myc-lymphomas and 8 Cdkn2a-lymphomas were tested. A luciferase assay was performed as a readout for cell viability and proliferation and results were also documented by light microscopy.

Regarding IL-6: cytokine / growth factor, in test [1], the “number of viable lymphoma cells / survival after cytokine stimulation” value is “enhance survival”.

With “SCF: cytokine / growth factor, obtained from RDI”, in test [1], the “number of viable lymphoma cells / survival after cytokine stimulation” value is “no effect on lymphocyte growth”.

For the molecule GM-CSF: cytokine / growth factor, the “number of viable lymphoma cells / survival after cytokine stimulation” value in test [1] is given as “no effect on lymphocyte growth”.

Consider `Cc1nn(-c2ccccc2)c(C)c1/C=N/N1CCN(Cc2ccccc2)CC1` [SANT-1], for which the “luciferase activity (viable lymphoma cells)” value with Eμ-Myc lymphoma cells (Myc-Ly6, 48 hours, 0, 0.5, 1, 5 and 10 μM) was “reduced in a dose dependant manner”. Moreover, the IC50 in the test with Eμ-Myc lymphoma cells (most responsive lymphomas, 48 h on stromal layer, read-out: IC50 (concentration needed for 50% of maximal inhibition)) is 1000 to 3000 nM.

B1: IL-7: cytokine / growth factor (protein, UniProt P13232 26-177, looked up)
Interleukin-7: DCDIEGKDGKQYESVLMVSIDQLLDSMKEIGSNCLNNEFNFFKRHICDANKEGMFLFRAARKLRQFLKMNSTGDFDLHLLKVSEGTTILLNCTGQVKGRKPAALGEAQPTKSLEENKSLKEQKKLNDLCFLKRLLQEIKTCWNKILMGTKEH
In the case of B1, the “number of viable lymphoma cells / survival after cytokine stimulation” value in test [1] is reported as “enhance survival”.

B2: IL-11: cytokine / growth factor (protein, UniProt P20809 22-199, looked up)
Interleukin-11: PGPPPGPPRVSPDPRAELDSTVLLTRSLLADTRQLAAQLRDKFPADGDHNLDSLPTLAMSAGALGALQLPGVLTRLRADLLSYLRHVQWLRRAGGSSLKTLEPELGTLQARLDRLLRRLQLLMSRLALPQPPPDPPAPPLAPPSSAWGGIRAAHAILGGLHLTLDWAVRGLLLLKTRL
As to B2, the “number of viable lymphoma cells / survival after cytokine stimulation” value in test [1] is given as “no effect on lymphocyte growth”.

B3: Wnt3a: growth factor (protein, UniProt P56704 19-352, looked up)
Protein Wnt-3a: SYPIWWSLAVGPQYSSLGSQPILCASIPGLVPKQLRFCRNYVEIMPSVAEGIKIGIQECQHQFRGRRWNCTTVHDSLAIFGPVLDKATRESAFVHAIASAGVAFAVTRSCAEGTAAICGCSSRHQGSPGKGWKWGGCSEDIEFGGMVSREFADARENRPDARSAMNRHNNEAGRQAIASHMHLKCKCHGLSGSCEVKTCWWSQPDFRAIGDFLKDKYDSASEMVVEKHRESRGWVETLRPRYTYFKVPTERDLVYYEASPNFCEPNPETGSFGTRDRTCNVSSHGIDGCDLLCCGRGHNARAERRREKCRCVFHWCCYVSCQECTRVYDVHTCK
On to B3, for which the “number of viable lymphoma cells / survival after cytokine stimulation” value in test [1] is given as “no effect on lymphocyte growth”.
